Test system: RAW264.7
Experiment: Antiinflammatory activity against mouse RAW264.7 cells assessed as inhibition of HMGB1-induced NO production pretreated with compounds for 15 mins followed by HMGB1 stimulation measured after 24 hrs by Griess reagent based assay
Type: functional, cell-based

IC50 | Structure (SMILES)
> 100 µM | CC(O)(CO)[C@@H]1CC[C@]2(C)[C@H](CC=C3[C@@H]4C[C@@](C)(CO)C[C@@H](O)[C@]4(C)CC[C@]32C)[C@@]1(C)CCC(=O)O (some centres not stated)
> 100 µM | C=C(C)[C@@H]1CC[C@]2(C(=O)O)CC[C@]3(C)[C@H](CC[C@@H]4[C@@](C)(CCC(=O)OC)[C@H](C(C)(C)O)CC[C@]43C)[C@@H]12
> 100 µM | CC1(C)C[C@H]2C3=CC[C@@H]4[C@@](C)(CCC(=O)O)[C@H]([C@](C)(O)CO)CC[C@@]4(C)[C@]3(C)CC[C@@]2(C)[C@H](O)[C@@H]1O
> 100 µM | C=C(CO)[C@@H]1CC[C@]2(C(=O)O)CC[C@]3(C)[C@H](CC[C@@H]4[C@@](C)(CCC(=O)O)[C@H](C(C)(C)O)CC[C@]43C)[C@@H]12
> 100 µM | COC(=O)CC[C@@]1(C)[C@H]([C@](C)(O)CO)CC[C@]2(C)[C@@H]1CC=C1[C@@H]3C[C@@](C)(CO)C[C@@H](O)[C@]3(C)CC[C@]12C
> 100 µM | C=C(C)[C@@H]1CC[C@]2(C(=O)O)CC[C@]3(C)[C@H](CC[C@@H]4[C@@](C)(CCC(=O)O)[C@H](C(C)(C)O)CC[C@]43C)[C@@H]12
> 100 µM | CC1(C)C[C@H]2C3=CC[C@@H]4[C@@](C)(CCC(=O)O)[C@H]([C@](C)(O)CO)CC[C@@]4(C)[C@]3(C)C[C@@H](O)[C@@]2(CO)[C@@H](O)[C@@H]1O
> 100 µM | C[C@@]1(CO)C[C@H]2C3=CC[C@@H]4[C@@](C)(CCC(=O)O)[C@H]([C@](C)(O)CO)CC[C@@]4(C)[C@]3(C)CC[C@@]2(C)[C@H](O)[C@@H]1O
15.9 µM | CC1(C)C[C@H]2C3=CC[C@@H]4[C@@](C)(CCC(=O)O)[C@H]([C@](C)(O)CO)CC[C@@]4(C)[C@]3(C)CC[C@@]2(C)[C@H](O)[C@H]1O
> 100 µM | CC1(C)C[C@@H](O)[C@]2(C)CC[C@]3(C)C(=CC[C@@H]4[C@@](C)(CCC(=O)O)[C@H]([C@](C)(O)CO)CC[C@]43C)[C@@H]2C1
> 100 µM | C=C(CO)[C@@H]1CC[C@]2(C(=O)O)CC[C@]3(C)[C@H](CC[C@@H]4[C@@](C)(CCC(=O)OC)[C@H](C(C)(C)O)CC[C@]43C)[C@@H]12
> 100 µM | C[C@@]1(CO)C[C@@H](O)[C@]2(C)CC[C@]3(C)C(=CC[C@@H]4[C@@](C)(CCC(=O)O)[C@H]([C@](C)(O)CO)CC[C@]43C)[C@@H]2C1
36 µM | C[C@]1(CO)C[C@H]2C3=CC[C@@H]4[C@@](C)(CCC(=O)O)[C@H]([C@](C)(O)CO)CC[C@@]4(C)[C@]3(C)CC[C@@]2(C)[C@H](O)[C@@H]1O
11.4 µM | CC1(C)[C@@H](OC(=O)CCC(=O)O)CC[C@]2(C)[C@H]3C(=O)C=C4[C@@H]5C[C@@](C)(C(=O)O)CC[C@]5(C)CC[C@@]4(C)[C@]3(C)CC[C@@H]12 [CARBENOXOLONE]
> 100 µM | CC1(C)C[C@H]2C3=CC[C@@H]4[C@@]5(C)CC[C@H](O)[C@](C)(CO)[C@@H]5CC[C@@]4(C)[C@]3(C)CC[C@@]2(C)[C@H](O)[C@@H]1O [SOYASAPOGENOL A]
> 100 µM | CC1(C)C[C@@H](O)[C@]2(C)CC[C@]3(C)C(=CC[C@@H]4[C@@]5(C)CC[C@H](O)[C@](C)(CO)[C@@H]5CC[C@]43C)[C@@H]2C1 [SOYASAPOGENOL B]

Structure (SMILES) | IC50
C=C(C)[C@@H]1CC[C@]2(C(=O)O)CC[C@]3(C)[C@H](CC[C@@H]4[C@@]5(C)CC[C@H](O)C(C)(C)[C@@H]5CC[C@]43C)[C@@H]12 [BETULINIC ACID] | > 100 µM

Source: ChEMBL document CHEMBL5053544, “Microbial transformation of pentacyclic triterpenes for anti-inflammatory agents on the HMGB1 stimulated RAW 264.7 cells by Streptomyces olivaceus CICC 23628” (Bioorg Med Chem, 2021)
